Measurements published in patent publication US9828605B2, “Composition for enhancing radiation sensitivity comprising PI4K isozyme inhibitor” (Seoul National University R&DB Foundation, priority 2015, dated 2017).

Experiments:
[1] = test system: BT-474 cell line; test: colony formation assay after antiviral drug treatment and irradiation, BT-474; type: cell-based, human; details: drug concentrations determined as 100 nM, 200 nM and 30 μM, FIGS. 5 and 6
Experimental: (§1) First, after 48 hours of siRNA transduction of Example 2, the cells were collected and 500 with 0 Gy, 1,000 with 2 Gy, 2,000 with 4 Gy, and 4,000 with 6 Gy cells were cultured on a plate according to a radiation dose. After it was checked that the cells were stably attached to a culture dish, radiation was treated with a radiation dose rate of 2.46 Gy per minute by 4 MV X-ray by using a linear accelerator, and the cells were cultured for about 14 days to 23 days until cell colonies were checked with the naked eye. The formed colonies were fixed with 100% methanol and then dyed with 0.5% crystal violet, and surviving fraction was calculated by counting the number of colonies including at least 50 cells. In the surviving fraction, an average of the number of cell colonies in three wells for each radiation dose was shown according to a linear-quadratic model using Kaleidagraph version 3.51 (Synergy Software, Reading, Pa.), and the result was illustrated in FIG. 2.
(§2) As the hepatitis anti-C virus drug, simeprevir (Olysio) (Janssen Pharmaceutica), sofosbuvir (sovaldi) (Gilead), and daclatasvir (Daklinza) (Bristol-Myers Squibb) were used. […]
(§3) After the determined amount of drug was treated in the brain tumor and breast cancer cell lines, the colony formation assay was performed by the same method as Experimental Example 1, and the result was illustrated in FIGS. 5 to 7.

[2] = test system: U251 cell line; test: colony formation assay after antiviral drug treatment and irradiation, U251; type: cell-based; details: drug concentrations determined as 100 nM, 200 nM and 30 μM, FIGS. 5 to 7
Experimental: as §1, §2, §3

[3] = test system: human breast cancer cell lines BT-474; test: tumor xenograft model in vivo with radiation irradiation; design: species or system BALB/c athymic nude mouse; details: simeprevir 10 mg/Kg to peritoneal cavity three times a week for two weeks + radiation 9 Gy (3 Gy three times a week); compared with other groups; FIG. 9
Experimental: In order to form a tumor xenograft model in vivo, 5×10^6 human breast cancer cell lines BT-474 were injected to a hind leg of a BALB/c athymic nude mouse. After 3 weeks, it was verified that the tumor was uniformly grown, and the mouse was randomly assigned to four groups of a control group, a simeprevir group, a radiation irradiation group, and a simeprevir+radiation irradiation group. The simeprevir was administrated to peritoneal cavity with a concentration of 10 mg/Kg three times a week for two weeks, and the radiation was irradiated with 9 Gy three times a week by 3 Gy by electron beam of 6 MeV while covering 1 cm bolus. After the entire treatment was finished, the size of the tumor was measured at an interval of about 1 week, and the result was illustrated in FIG. 9.

[4] = test system: phosphorylation of PKC and AKT; test: immune blotting of phosphorylation after simeprevir treatment, U251; type: cell-based; details: 24-72 hours of drug treatment, FIG. 5 right panel
Experimental: Simeprevir used as a hepatitis anti-C virus drug was treated and phosphorylation was verified through immune blotting after 24-72 hours of drug treatment. The result was illustrated in FIG. 5 (right panel).

SMILES | sensitivity to radiation (colony formation assay) [1] | sensitivity to radiation (colony formation assay) [2] | growth of the tumor [3] | phosphorylation of AKT [4] | phosphorylation of PKC [4]
COc1ccc2c(O[C@@H]3C[C@H]4C(=O)N[C@]5(C(=O)NS(=O)(=O)C6CC6)C[C@H]5/C=C\CCCCN(C)C(=O)[C@@H]4C3)cc(-c3nc(C(C)C)cs3)nc2c1C [simeprevir] | enhanced | enhanced | significantly inhibited | reduction | reduction
CC(C)OC(=O)[C@H](C)N[P@](=O)(OC[C@H]1O[C@@H](n2ccc(=O)[nH]c2=O)[C@](C)(F)[C@@H]1O)Oc1ccccc1 [sofosbuvir] | enhanced | enhanced | – | – | –
